Columns and labels:
[1] = tested on: colon adenocarcinoma No. 38 (colo 38); assay: In vivo antitumor assay, Colo38(sc); set-up: species or system mouse; settings: drug route iv, Ex 26 qd 3-5 bid 6-11, Ex 30 and 33 qd 3-11
Source text: (§1) Mice: Inbred: C3H/He and NCR-nu; and Hybrids: B6D2Fl (C57BL/6 females X DBA/2 males, CD2Fl (Balb/c females X DBS/2 males) and B6x C3fl (C57BL/6 x C3H) were bred at Wayne State University from strained obtained from the Frederick Cancer Research Facility, Frederick, Md. or purchased from commercial suppliers.
(§2) Tumors: Murine Tumor: P388 and an adriamycin-resistant (ADR) subline P388/ADR leukemia and the following transplantable solid tumors of mice were used for in Vivo testing: B16 melanoma (B16), pancreatic ductal adenocarcinoma No. 03 (Panc 03), colon adenocarcinoma No. 38 (colo 38), mammary ductal adenocarcinoma No. 16/C (Mam16) and an adriamycin-resistantsubline Mam16C/ADR. Human tumor: A single human tumor, mammary carcinoma MX-1 (MX1) was used for in vivo testing. All tumors are in the Developmental Therapeutics Program frozen tumor respository, maintained by the Biological Testing Branch, Frederick Md. Each has a detailed description, code identification number, and list of references at the National Tumor Repository. Murine tumors were maintained in the mouse strain of origin and were transplanted in the appropriate F1 hydrid (or the strain of origin) for therapy trials. Human mammary carcinoma MX-1 MX1) was maintained as a subcutaneous implant in either athymic Swiss (Cr: NIH(S)-nu) or athymic random bred (NCR-nu) mice and transplanted in NCR-nu for therapy trials.
(§3) Chemotherapy: For pancreatic ductal adenocarcinoma No. 3, colon adenocarcinoma No. 38 (colo38), lung carcinoma No. 12 (LC12) and both adriamycin-sensitive (RP) and -resistant ADR) mammary ductal adenocarcinoma No. 16 (Mam16) tumors, the following methods were used to help ensure a more uniform tumor burden per mouse (thus reducing the requirement for greater numbers of mice per group), bilateral tumor implants were used. The animals necessary to begin an experiment were pooled, implanted bilaterally s.c. on day zero with 30-60-mg tumor fragments using a 12-gauge trocar, and again pooled before randomization to the various treatment and control groups. Chemotherapy was started within three days after tumor implantation while the number of cells per mouse was relatively small (1×10^7 […]).
(§4) Quantitative end points used assess antitumor activity included % Increased Life Span (% ILS), Tumor Cell Kill (Log10 kill), and Tumor Growth Inhibition (T/C). Long Term Survivors (45 or 60 day) were excluded from calculations of % ILS and Tumor Cell Kill.
(§5) Tumors were measured with a caliper once or twice weekly (as needed) until either tumors exceeded 1600 mg or cure was assured. Tumor weights were estimated from two-dimensional measurements: Tumor Weight (mg)=(a×b^2) / 2, where a and b are the tumor length and width (nun) respectively. Measurements were carried out simultaneously in both treatment and control groups. When the control group tumors reached approximately 750-1500 mg in size (median of group), the median tumor weight of each group was determined (including zeros). The T/C value in percent is an indiation of antitumor effectiveness. The % T/C was calculated from the following formula for solid murine tumor models: [formula] where T and C are median tumor weights of the treatment and control groups, respectively. A T/C equal to or less than 42% is considered significant antitumor activity. A T/C value <10% is indicative of a high degree of antitumor activity and is the level used by National Cancer Institute to justify further development if other requirements are met (termed DN-2 level activity). By convention the T/C value for the mammary carcinoma MX-1 models is calculated by the parameter of change in tumor weight. The % T/C was calculated from the following formula for MX-1 models [formula] where ΔT and ΔC are the change in mean tumor weight of the test and control groups, respectively, and T (initial) is the initial mean tumor weight of the test group. […] A reproducible % T/C ≤10 is considered significant activity.

[2] = In vivo antitumor assay, Colo38(sc); set-up: species or system mouse; settings: mouse, in vivo, drug route iv, Ex 26 qd 3-5 bid 6-11, Ex 30 and 33 qd 3-11
Source text: as §1, §2, §3, §4, §5

[3] = tested on: pancreatic ductal adenocarcinoma No. 03 (Panc 03); assay: In vivo antitumor assay, Panc03(sc); set-up: species or system mouse
Source text: as §1, §2, §3, §4
(§6) The log10 cell kill was calculated from the following formula: [formula] where T-C is the tumor difference in the median day of death between the treated (T) and the control (C) groups and Td is the tumor doubling time (in days), the latter estimated from the best fit straight line from a log-linear growth plot of the control-group tumors in exponential growth. The conversion of the T-C values to log10 cell kill is possible because the Td for tumors regrowing post-treatment approximated the Td values of the tumors in untreated control mice.
(§7) Tumors were measured with a caliper once or twice weekly (as needed) until either tumors exceeded 1600 mg or cure was assured. Tumor weights were estimated from two-dimensional measurements: Tumor Weight (mg)=(a×b^2) / 2, where a and b are the tumor length and width (nun) respectively. Measurements were carried out simultaneously in both treatment and control groups. When the control group tumors reached approximately 750-1500 mg in size (median of group), the median tumor weight of each group was determined (including zeros). The T/C value in percent is an indiation of antitumor effectiveness. The % T/C was calculated from the following formula for solid murine tumor models: [formula] where T and C are median tumor weights of the treatment and control groups, respectively. A T/C equal to or less than 42% is considered significant antitumor activity. […]

[4] = In vivo antitumor assay, Panc03(sc); set-up: species or system mouse; settings: mouse, in vivo
Source text: as §1, §2, §3, §4, §6, §7

[5] = tested on: P388 murine leukemia cells; assay: Malignant cell cytotoxicity, continuous 48-hour exposure (Coulter Counter); type: cell-based; settings: Mus musculus, read-out: IC50 P388 cont. exp.
Procedure: Examples of compound I having Topo II activity were tested for malignant cell cytotoxicity. In vitro cytotoxicity was assayed by determining cell survival following exposure of P388 murine leukemia cells to a range of test compound concentrations. Cytotoxicity was quantitated following either a one-hour exposure or continuous exposure of P388 cells to test compound.
Cytotoxicity following a one-hour exposure of cells to drug was assayed by quantitating clonogenic cell survival according to a published procedure [Freshney, R. L. (1987) Culture of Animal Cells. A Manual of Basic Technique. Wiley-Liss Inc., New York, N.Y., pp. 140-144]. Briefly, following drug exposure cells were plated in soft agar and incubated (37°, 5% CO2) for 7-10 days during which time viable cells form visible colonies. Cytotoxicity following continuous exposure of cells to test compound was assayed by quantitating total P388 cells on a Coultier Counter following a 48-hour co-incubation of test compound with cells. P388 cells were maintained in log phase throughout the duration of cytotoxicity assays.
The percentage of cells surviving relative to an untreated control was graphed as a function of increasing drug concentration.

[6] = drug route iv, Ex 26 qd 4-11, Ex 30 qd 3-11, Ex 33 qd 3-4,7,10
[7] = drug route iv, Ex 26 qd 4-11, Ex 30 qd 3-11, Ex 33 qd 3-4,7,10, read-out: MTD

SMILES	T/C % [1]	MTD [2]	T/C % [3, 6]	LOG KILL ([3]; drug route iv, qd 4-11, log10 cell kill)	T/C % ([3]; drug route sc, Ex 3 qd 3-12, Ex 26 qd 3,5-7 bid 4)	MTD [4, 7]	MTD ([4]; drug route sc, Ex 26 qd 3,5-7 bid 4, read-out: MTD)	IC50 [5]
Cc1cc(-c2c(F)cc3c(=O)c(Cc4c(O)cccc4O)cn(C4CC4)c3c2F)cc(C)n1 [Example 26, 1-Cyclopropyl-6,8-difluoro-7-[2,6-dimethyl-4-pyridinyl]-3-[2,6-dihydroxyphenylmethyl]-1,4-dihydroquinoline-4-one]	46%	30 mg/kg	0%	1.7	19%	12 mg/kg	840 mg/kg	55 nM
Cc1cc(-c2c(F)cc3c(=O)c(Cc4ccccc4O)cn(C4CC4)c3c2F)cc(C)n1 [Example 30]	42%	148 mg/kg	5%			235 mg/kg		290 nM
Cc1cc(-c2c(F)cc3c(=O)c(Cc4ccc(O)cc4O)cn(C4CC4)c3c2F)cc(C)n1 [Example 33]	> 100%	33 mg/kg	73%			19 mg/kg		61 nM

From patent US5330992A, “1-cyclopropyl-4-pyridyl-quinolinones” (priority 1992, dated 1994)
